From PubChem BioAssay (NCI)
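Tested at 5 concentrations; 48 h exposure; 96-well plates; endpoints linearly interpolated, else capped at highest concentration. GI50 = concentration required for 50% inhibition of growth. The concentration for full growth arrest is given as TGI.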

Columns and labels:
Assay in all cases: NCI tumour cell line growth inhibition, 48 h
UO-31 renal = test system: UO-31 renal
K-562 leukemia = test system: K-562 leukemia
A549 NSCLC = test system: A549 NSCLC
OVCAR-8 ovarian = test system: OVCAR-8 ovarian
SF-268 CNS = test system: SF-268 CNS
SW-620 colon = test system: SW-620 colon
MDA-MB-435 = test system: MDA-MB-435
PC-3 prostate = test system: PC-3 prostate
UACC-62 melanoma = test system: UACC-62 melanoma
COLO 205 colon = test system: COLO 205 colon

Row | SMILES | GI50 (UO-31 renal) [µM] | TGI (UO-31 renal) [µM] | GI50 (K-562 leukemia) [µM] | TGI (K-562 leukemia) [µM] | GI50 (A549 NSCLC) [µM] | TGI (A549 NSCLC) [µM] | GI50 (OVCAR-8 ovarian) [µM] | TGI (OVCAR-8 ovarian) [µM] | GI50 (SF-268 CNS) [µM] | TGI (SF-268 CNS) [µM] | GI50 (SW-620 colon) [µM] | TGI (SW-620 colon) [µM] | GI50 (MDA-MB-435) [µM] | TGI (MDA-MB-435) [µM] | GI50 (PC-3 prostate) [µM] | TGI (PC-3 prostate) [µM] | GI50 (UACC-62 melanoma) [µM] | TGI (UACC-62 melanoma) [µM] | GI50 (COLO 205 colon) [µM] | TGI (COLO 205 colon) [µM]
1 | N#Cc1nn(-c2cc(=O)[nH]c3ccc(Br)cc23)c(N)c1C#N | > 100 | > 100 | > 100 | > 100 | > 100 | > 100 | > 100 | > 100 | 67 | > 100 | > 100 | > 100 | > 100 | > 100 | > 100 | > 100 | > 100 | > 100 | > 100 | > 100
2 | CCOCCOC[C@H]1CCCN(c2ccnc3sc(C(N)=O)c(N)c23)C1 | 15.3 | > 100 | 8.44 | > 100 | 77.4 | > 100 | 25.1 | > 100 | 56.4 | > 100 | > 100 | > 100 | 29.8 | > 100 | 21.7 | > 100 | 6.51 | > 100 | 59.7 | > 100
3 | O=C(NCCCCCCNC(=O)OCc1ccc2c(Cl)cc(Cl)c(O)c2n1)OCc1ccc2c(Cl)cc(Cl)c(O)c2n1 | 0.619 | 1.95 | 0.381 |  | 1.55 | 3.62 | 0.677 | 2.62 | 1.33 | 2.78 | 0.303 | 0.984 | 0.443 | 1.71 | 0.815 | 2.42 | 1.06 | 2.28 | 0.589 | 2.19
4 | CCOC(=O)N1C=CC(=C2C(=C3C=CN(C(=O)OCC)C=C3)C(=C3C=CN(C(=O)OCC)C=C3)C2=C2C=CN(C(=O)OCC)C=C2)C=C1 |  | 38.5 |  | 71.4 |  | > 100 |  | 71.5 |  | > 100 |  | > 100 |  | 98.8 |  | 91.7 |  | 45 |  | > 100
5 | C=C(C)[C@@H]1CC[C@]2(C(N)=O)CC[C@]3(C)[C@H](CC[C@@H]4[C@@]5(C)C/C(=C/c6cccnc6)[C@H](O)C(C)(C)[C@@H]5CC[C@]43C)[C@@H]12 | 3.02 | > 100 | 3.4 | > 100 | 3.37 | > 100 | 4.54 | > 100 | 6.8 | > 100 | 4.38 | > 100 | 3.77 | > 100 | 2.94 | > 100 | 5.38 | > 100 | 3.1 | 12.4
6 | COc1ccc(C(c2cc3c(cc2O)OCO3)N2CCOCC2)cc1OC (centres undefined) |  | 25 |  | 69.4 |  | 51.9 |  | 27.2 |  | 25.5 |  | 14.4 |  | 23.4 |  | 25.7 |  | 19.9 |  | 28.8
7 | CC(C)(C)c1cc(-c2nc3c(F)c(F)c(F)c(F)c3[nH]2)cc(C(C)(C)C)c1O | > 100 | > 100 | > 100 | > 100 | > 100 | > 100 | > 100 | > 100 | > 100 | > 100 | > 100 | > 100 | > 100 | > 100 | > 100 | > 100 | > 100 | > 100 | > 100 | > 100
8 | Cc1ccc2c(c1)C=CC(C#N)N2C(=O)Oc1ccccc1 (centres undefined) |  | > 100 |  | 64.4 |  | > 100 |  | 31.1 |  | > 100 |  | > 100 |  | 29.7 |  | 97.9 |  | > 100 |  | 70.1
